By IC50 is commonly meant the concentration that gives 50% inhibition.

Assay [1] deals with T1, recombinant human FLAP protein (Homo sapiens, UniProt P20292).
T1 construct: made in house; host or cells: Sf9 insect cells (membrane fraction, 100,000 x g pellet)
T1 sequence (P20292 1-161): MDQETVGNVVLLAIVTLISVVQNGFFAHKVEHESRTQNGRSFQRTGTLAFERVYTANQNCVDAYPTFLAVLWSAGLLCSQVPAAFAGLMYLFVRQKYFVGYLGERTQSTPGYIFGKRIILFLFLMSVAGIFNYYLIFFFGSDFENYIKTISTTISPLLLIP
Put plainly: FLAP binding assay (Scintillation Proximity Assay, displacement of [125I]L-691,831). As to conditions: read-out: Human FLAP SPA Binding (IC50 nM). The protocol:
Compounds are assessed for the ability to bind to FLAP in a binding assay that measures compound-specific displacement of an iodinated (^125I) FLAP inhibitor via a Scintillation Proximity Assay format (adapted from S. Charleson et al., Mol. Pharmacol., 1992, 41, 873-879).
Cell pellets produced from sf9 insect cells expressing recombinant human FLAP protein are resuspended in buffer A [15 mM Tris-HCl (pH 7.5), 2 mM MgCl2, 0.3 mM EDTA, 1 mM PMSF]. The cells are lysed with a Dounce homogenizer and the material is centrifuged at 10,000×g for 10 minutes. The supernatant is then collected and centrifuged at 100,000×g for 60 minutes. To prepare membrane protein for an assay, an aliquot of the 100,000×g pellet is resuspended in 1 ml of buffer A, Dounce homogenized, and finally subjected to polytron mixing (30 seconds). Membrane protein (25 μl, 5 μg) is mixed with WGA SPA beads (Amersham) and stirred for 1 h. To an assay plate (Perkin Elmer FlexiPlate) is added 25 μl of test compound prepared in Binding buffer [100 mM Tris (pH 7.5), 140 mM NaCl, 5% glycerol, 2 mM EDTA, 0.5 mM TCEP, 0.05% Tween 20], 25 μl of [^125I]L-691,831 (an iodinated analog of MK-591, Charleson et al. Mol. Pharmacol., 41, 873-879, 1992) and finally 50 μl of the bead/protein mixture. (final concentrations: beads, 200 μg/well; protein, 5 μg/well; [^125I] probe, 0.08 nM/well (17 nCi/well). The plates are shaken for 2 h before reading on a Microbeta plate reader. Non-specific binding is determined by the addition of 10 μM cold L-691,831 compound.

The subject of assay [2] is synthesis of LTB4 in human whole blood. Kind of assay: Human whole blood assay (calcimycin-stimulated LTB4 synthesis). The assay is classed as cell-based. As to conditions: Homo sapiens; read-out: Human Whole Blood LTB4 Assay for FLAP (IC50 nM). How it is done:
Compounds are additionally tested in a human whole blood assay to determine their ability to inhibit the synthesis of LTB4 in a cellular system. Compounds are combined with heparinized human whole blood and incubated for 15 minutes at 37° C. Calcimycin (20 μM final, prepared in phosphate-buffered saline, pH 7.4) is then added and the mixture is incubated for another 30 minutes at 37° C. The samples are centrifuged for 5 min at low speed (1500×g) and the plasma layer is removed. Plasma LTB4 concentrations are then measured using an antibody-based homogenous time-resolved fluorescence method (CisBio, Bedford, Mass.).

A value given as a limit tells only on which side of the number the result lay.

In the case of `COc1cccc2c(C(C)(c3ccc(-c4cnc(N)nc4)cc3)C(C)C)cn(Cc3ccccn3)c12` (stereo not shown) [Example 51, 5-(4-{2-[7-methoxy-1-(pyridin-2-ylmethyl)-1H-indol-3-yl]-3-methylbutan-2-yl}phenyl)pyrimidin-2-amine], the concentration for half-maximal inhibition (IC50) in assay [1] worked out at 2.7 nM; in assay [2], 840 nM.
Taken in the same sequence, the figures for `CC(C)C(C)(c1ccc(-c2cnc(N)nc2)cc1)c1cn(CCN2CCN(C)CC2)c2ccccc12` (stereo not shown) [Example 52, 5-[4-(3-methyl-2-{1-[2-(4-methylpiperazin-1-yl)ethyl]-1H-indol-3-yl}butan-2-yl)phenyl]pyrimidin-2-amine] were 3.1 nM and 2200 nM.
`COC(c1ccc(-c2cnc(N)nc2)cc1)(c1nn(C)c2ccccc12)C(C)(C)C` (stereo not shown) [Example 53, 5-[4-[1-methoxy-2,2-dimethyl-1-(1-methylindazol-3-yl)propyl]phenyl]pyrimidin-2-amine]: the half-maximal inhibitory concentration (IC50) in assay [1] is 400 nM; in assay [2], over 5000 nM.
Take `CC(C)C(C)(c1ccc(-c2cnc(N)nc2)cc1)c1c[nH]c2cc(OC3CCOC3)ccc12` (stereo not shown) [Example 54, 5-(4-{3-methyl-2-[6-(tetrahydrofuran-3-yloxy)-1H-indol-3-yl]butan-2-yl}phenyl)pyrimidin-2-amine]: the results for the IC50 in assay [1] and in assay [2] were 8.3 nM and 840 nM, respectively.
The matching figures for `COCC(C)(c1ccc(-c2cnc(N)nc2)cc1)c1cn(CC(=O)O)c2ncccc12` (stereo not shown) [Example 55, (3-{2-[4-(2-aminopyrimidin-5-yl)phenyl]-1-methoxypropan-2-yl}-1H-pyrrolo[2,3-b]pyridin-1-yl)acetic acid]: 1100 nM and over 5000 nM.
Taken in the same sequence, the figures for `COCC(C)(c1ccc(-c2cnc(N)nc2)cc1)c1cn(C)c2ncccc12` (stereo not shown) [Example 56, 5-{4-[1-methoxy-2-(1-methyl-1H-pyrrolo[2,3-b]pyridin-3-yl)propan-2-yl]phenyl}pyrimidin-2-amine] were 160 nM and over 5000 nM.
Taken in the same sequence, the figures for `COc1cccc2[nH]cc(C(C)(c3ccc(-c4cnc(N)nc4)cc3)C(C)C)c12` (stereo not shown) [Example 57, 5-{4-[2-(4-methoxy-1H-indol-3-yl)-3-methylbutan-2-yl]phenyl}pyrimidin-2-amine] were 37 nM and 2600 nM.
On to `CC(C)C(C)(c1ccc(-c2cnc(N)nc2)cc1)c1c[nH]c2cccc(F)c12` (stereo not shown) [Example 58, 5-{4-[2-(4-fluoro-1H-indol-3-yl)-3-methylbutan-2-yl]phenyl}pyrimidin-2-amine], for which the results for the IC50 in assay [1] and in assay [2] were 1.1 nM and 69 nM, respectively.
The matching figures for `CC(C)C(C)(c1ccc(-c2cnc(N)nc2)cc1)c1c[nH]c2c(F)cccc12` (stereo not shown) [Example 59, 5-{4-[2-(7-fluoro-1H-indol-3-yl)-3-methylbutan-2-yl]phenyl}pyrimidin-2-amine]: 0.65 nM and 330 nM.
The matching figures for `CC(C)C(C)(c1ccc(-c2cnc(N)nc2)cc1)c1c[nH]c2cc(F)ccc12` (stereo not shown) [Example 60, 5-{4-[2-(6-fluoro-1H-indol-3-yl)-3-methylbutan-2-yl]phenyl}pyrimidin-2-amine]: 0.86 nM and 170 nM.
Taken in the same sequence, the figures for `CC(C)C(C)(c1ccc(-c2cnc(N)nc2)cc1)c1cc2ccc(F)cc2[nH]1` (stereo not shown) [Example 61, 5-{4-[2-(6-fluoro-1H-indol-2-yl)-3-methylbutan-2-yl]phenyl}pyrimidin-2-amine] were 9.3 nM and 1200 nM.
Take `CC(C)C(C)(c1ccc(-c2cnc(N)nc2)cc1)c1cc2c(F)cccc2[nH]1` (stereo not shown) [Example 62, 5-{4-[2-(4-fluoro-1H-indol-2-yl)-3-methybutan-2-yl]phenyl}pyrimidin-2-amine]: the IC50 amounted to 18 nM in assay [1] and 2300 nM in assay [2].
Taken in the same sequence, the figures for `CC(C)C(C)(c1ccc(-c2cnc(N)nc2)cc1)c1c[nH]c2ccc(F)cc12` (stereo not shown) [Example 63, 5-{4-[2-(5-fluoro-1H-indol-3-yl)-3-methylbutan-2-yl]phenyl}pyrimidin-2-amine] were 3 nM and 440 nM.
With `CC(C)C(C)(c1ccc(OCc2ccccn2)cc1)c1c[nH]c2cc(C(=O)O)ccc12` (stereo not shown) [Example 64, 3-[1,2-dimethyl-1-[4-(2-pyridylmethoxy)phenyl]propyl]-1H-indole-6-carboxylic acid], the IC50 in assay [1] was found to be 0.85 nM; in assay [2], 1400 nM.
For the molecule `CC(C)C(C)(c1ccc(-c2cnc(N)nc2)cc1)c1c[nH]c2cc(-c3nnc(N)o3)ccc12` (stereo not shown) [Example 65, 5-[3-[1-[4-(2-aminopyrimidin-5-yl)phenyl]-1,2-dimethyl-propyl]-1H-indol-6-yl]-1,3,4-oxadiazol-2-amine], the results for the IC50 in assay [1] and in assay [2] were 0.57 nM and 1800 nM, respectively.
The matching figures for `CC(C)C(C)(c1ccc(-c2ccc(N)nc2)cc1)c1c[nH]c2ccccc12` (stereo not shown) [Example 66, 5-{4-[2-(1H-indol-3-yl)-3-methylbutan-2-yl]phenyl}pyridin-2-amine]: 1.2 nM and 170 nM.
Taken in the same sequence, the figures for `CC(C)C(C)(c1ccc(-c2cnc(N)nc2)cc1)c1c[nH]c2cc(F)c(F)cc12` (stereo not shown) [Example 67, 5-{4-[2-(5,6-difluoro-1H-indol-3-yl)-3-methylbutan-2-yl]phenyl}pyrimidin-2-amine] were 3 nM and 340 nM.
With `CC(C)C(C)(c1ccc(-c2cnc(N)nc2)cc1)c1c[nH]c2cc(-c3nnn[nH]3)ccc12` (stereo not shown) [Example 68, 5-(4-[3-methyl-2-[6-(1H-tetrazol-5-yl)-1H-indol-3-yl]butan-2-yl}phenyl)pyrimidin-2-amine], the IC50 is 1 nM in assay [1] and over 5000 nM in assay [2].
As for `Nc1ncc(-c2ccc(C3(c4nnc(-c5ccccc5)[nH]4)CCOCC3)cc2)cn1` [Example 69, 5-{4-[4-(5-phenyl-4H-1,2,4-triazol-3-yl)tetrahydro-2H-pyran-4-yl]phenyl}pyrimidin-2-amine], the IC50 turned out to be 120 nM in assay [1] and 3100 nM in assay [2].
Taken in the same sequence, the figures for `COC(=O)c1ccc2c(C(C)(c3ccc(-c4cnc(N)nc4)cc3)C(C)C)c[nH]c2c1` (stereo not shown) [Example 70, methyl 3-{2-[4-(2-aminopyrimidin-5-yl)phenyl]-3-methylbutan-2-yl}-1H-indole-6-carboxylate] were 0.9 nM and 240 nM.
Taken in the same sequence, the figures for `CC(C)C(C)(c1ccc(-c2ccc(N)nc2)cc1)c1c[nH]c2cc(-c3nnc(N)o3)ccc12` (stereo not shown) [Example 71, 5-(4-{2-[6-(5-amino-1,3,4-oxadiazol-2-yl)-1H-indol-3-yl]-3-methylbutan-2-yl}phenyl)pyridin-2-amine] were 0.72 nM and 1900 nM.
Taken in the same sequence, the figures for `Cn1ccc(C(O)(c2ccc(-c3cnc(N)nc3)cc2)C(C)(C)C)n1` (stereo not shown) [Example 72, 1-[4-(2-aminopyrimidin-5-yl)phenyl]-2,2-dimethyl-1-(1-methyl-1H-pyrazol-3-yl)propan-1-ol] were 110 nM and 2100 nM.
With `CC(C)C(C)(c1ccc(-c2cnc(N)nc2)cc1)c1cn(Cc2nnn[nH]2)c2ccccc12` (stereo not shown) [Example 73, 5-(4-{3-methyl-2-[1-(1H-tetrazol-5-ylmethyl)-1H-indol-3-yl]butan-2-yl}phenyl)pyrimidin-2-amine], the values for the IC50 in assay [1] and in assay [2] were 1.3 nM and over 5000 nM, respectively.
Consider `Nc1ncc(-c2ccc(C3(c4n[nH]c(-c5cccnc5)n4)CCOCC3)cc2)cn1` [Example 74, 5-(4-{4-[5-(pyridin-3-yl)-1H-1,2,4-triazol-3-yl]tetrahydro-2H-pyran-4-yl}phenyl)pyrimidin-2-amine], for which the concentration for half-maximal inhibition (IC50) in assay [1] is 780 nM; in assay [2] it was 3500 nM.
Take `Nc1ncc(-c2ccc(C3(c4nc5ccccc5[nH]4)CCOCC3)cc2)cn1` [Example 75, 5-{4-[4-(1H-benzimidazol-2-yl)tetrahydro-2H-pyran-4-yl]phenyl}pyrimidin-2-amine]: the half-inhibitory concentration (IC50) in assay [1] was 380 nM; in assay [2] it was over 5000 nM.
The matching figures for `CC(C)C(C)(c1ccc(-c2cnc(N)nc2)cc1)c1c[nH]c2c(-c3nnc(N)o3)cccc12` (stereo not shown) [Example 76, 5-(4-{2-[7-(5-amino-1,3,4-oxadiazol-2-yl)-1H-indol-3-yl]-3-methylbutan-2-yl}phenyl)pyrimidin-2-amine]: 1.1 nM and 250 nM.

These data come from patent US9174980B2, “Heterocyclic compounds as inhibitors of leukotriene production” (Boehringer Ingelheim International GmbH, priority 2012, dated 2015).
